Columns and labels:
HepG2 cells [1] = experiment: HepG2 cell preservation at 4° C., survival ratio by Cellstain (Calcein-AM/PI) fluorescent double staining; format: cell-based, human; settings: for cell survival ratio (fluorescent dye observation): HepG2, 4° C., 48 hours, peptide 10 mg/ml in Euro-Collins solution
Protocol: (§1) Nfe6-, Nfe8-, and Nfe11-based confirmation of cell protecting effects and cell preserving effects was performed with the use of the HepG2 cell line (FIG. 3) derived from the human liver (purchased from Riken Cell Bank). The experiment was carried out using the HepG2 cells that had been cultured for about a week in Dulbecco's Modified Eagle's Medium (DMEM) (Sigma-Aldrich, Japan) (a culture solution) containing 10% bovine serum (FBS, Gibco) and 50 μg/ml penicillin/streptomycin (Invitrogen). FBS was inactivated by heating at 56° C. for 30 minutes and then used. Culture was conducted in a CO2 incubator (SANYO) using a flask in an atmosphere of 5% CO2 at 37° C. The HepG2 cells that had reached subconfluent conditions (i.e., conditions immediately before the container becomes filled with cells) were treated with a trypsin solution (Wako Pure Chemical Industries, Ltd.) to prepare a cell suspension. The cell suspension was sowed on a cell culture microplate, culture was conducted in a CO2 incubator (5% CO2, 37° C.) overnight, and the resultant was then used for the preservation experiment. In all the experiments described below, cells were preserved at 4° C.
The cells that had been subjected to preservation treatment for 48 hours were stained with Cellstain (Cell Double Staining Kit, available from Dojindo Laboratories), and the cells were observed under a fluorescent microscope (Olympus IX70) to evaluate the survival ratio. Cellstain (Cell Double Staining Kit) involves the use of Calcein-AM fluorescent dye, which stains viable cells, in combination with PI (Propidium iodide) fluorescent dye, which stains dead cells. […] Thereafter, the cell culture plate was mounted on a fluorescent microscope, and “viable cells stained yellow green” were observed using a fluorescence cube for GFP (excitation filter: BP460-480; dichroic mirror: DM450; absorption filter: BA460-510). Also, “dead cells stained red” were observed using a fluorescence cube for YFP (excitation filter: BP490-500; dichroic mirror: DM505; absorption filter: BA515-560).

HepG2 cells [2] = experiment: HepG2 cell preservation at 4° C., survival ratio by amount of LDH released; format: cell-based, human; settings: HepG2, 4° C., peptide 10 mg/ml in EC solution, 11 repetitions; for survival ratio based on the assay of the amount of LDH: 24 hours
Protocol: as §1
Further, the cell survival ratio after 24-hour-preservation was estimated using the LDH Cytotoxicity Detection Kit (Takara Bio Inc.). The LDH amount was measured by sowing the cell suspension prepared by the method described in (5) on a 4-well cell culture plate (Nalge Nunc International K.K.) and subjecting the resultants to the preservation experiment at 4° C. for 24 hours and for 48 hours. […] The amount of red formazan generated was evaluated by assaying the absorbance at 490 nm using a microplate reader (Sunrise Remote, Wako Pure Chemical Industries, Ltd.). In this experiment, the LDH amount when the HepG2 cells had been preserved for 24 hours using a cell preservative solution containing 1% Triton X (the A2 solution) was designated as 100% and the percentage of LDH in the experiment was determined based thereon.

HepG2 cells [3] = experiment: HepG2 cell preservation at 4° C., survival ratio by WST-8 (Cell Counting Kit-8); format: cell-based, human; settings: HepG2, 4° C., 48 hours, peptide 10 mg/ml in EC solution, 11 repetitions
Protocol: as §1, with “The cell suspension was sowed on a cell culture microplate, culture was conducted in a CO2 incubator (5% CO2, 37° C.) overnight, and the resultant was then used for the preservation experiment. In all the experiments described below, cells were preserved at 4° C.” left out
[…] The amount of water-soluble formazan in the medium was evaluated by measuring the absorbance at 450 nm using a microplate reader (Sunrise Remote, Wako Pure Chemical Industries, Ltd.), and the percentage of viable cells after the cell preservation experiment was determined using the number of cells determined by adding WST-8 to the HepG2 cells before the preservation experiment as a control (100%).

HepG2 cells [4] = experiment: HepG2 cell preservation at 4° C., survival ratio by amount of ATP (CellTiter-Glo); format: cell-based, human; settings: HepG2, 4° C., 48 hours, peptide 10 mg/ml in EC solution, 11 repetitions
Protocol: Nfe6-, Nfe8-, and Nfe11-based confirmation of cell protecting effects and cell preserving effects was performed with the use of the HepG2 cell line (FIG. 3) derived from the human liver (purchased from Riken Cell Bank). The experiment was carried out using the HepG2 cells that had been cultured for about a week in Dulbecco's Modified Eagle's Medium (DMEM) (Sigma-Aldrich, Japan) (a culture solution) containing 10% bovine serum (FBS, Gibco) and 50 μg/ml penicillin/streptomycin (Invitrogen). FBS was inactivated by heating at 56° C. for 30 minutes and then used. Culture was conducted in a CO2 incubator (SANYO) using a flask in an atmosphere of 5% CO2 at 37° C. […]
Since the metabolism is reduced at low temperatures, substantially no ATP is synthesized in cells. […] The ATP concentration was measured using a 96-well cell culture plate for emission measurement (Nalge Nunc International K.K.) and the HepG2 cells prepared by the method described in (5). […] ATP concentration after preservation was evaluated by adding a luminescent reagent (CellTiter-Glo, Promega) to wells and assaying the luminescent intensity using a microplate reader (Wallac 1420 ARVOsx, PerkinElmer Life Sciences, Japan). […]

[5] = tested on: fertilized eggs of Japanese Black Cattle; experiment: preservation of fertilized eggs of Japanese Black Cattle at 4° C., survival by microscopic observation; format: cell-based
Protocol: The fertilized eggs of Japanese Black Cattle were subjected to the preservation experiment at 4° C. for 72 to 96 hours (3 to 4 days) using Nfe11, and the survival ratio of the fertilized eggs after preservation was assayed. At the outset, the follicle-stimulating hormones (FSH) were used to subject superovulated […] cattle to artificial insemination. Seven days thereafter, 3 to 6 fertilized eggs at the initial blastocyst stage were removed from the salpinx of the […] cattle and introduced into a straw having a diameter of 400 micrometers. In this case, Nfe11 powder samples were dissolved in a phosphate buffer (PBS) to a concentration of 5 mg/ml or 10 mg/ml, and the recovered fertilized eggs were soaked in the resulting solutions. Both ends of the straw were sealed, the resultant was allowed to stand in a refrigerator at 4° C., and the preservation experiment was carried out for 72 hours to 96 hours. Survival of the fertilized eggs after the preservation experiment was evaluated using a microscopic observation. As a result, the data as shown below were obtained.

| Substance | cell survival ratio (fluorescent dye observation) (HepG2 cells [1]) | survival ratio based on the assay of the amount of LDH (HepG2 cells [2]) [%] | survival ratio of HepG2 cells, amount of WST-8 (HepG2 cells [3]) [%] | cell protection effects (HepG2 cells [1]; HepG2 cell lines, 10 mg/ml in Euro-Collins solution) | cell survival ratio, amount of LDH released (100 minus LDH value) (HepG2 cells [2]; 48 hours) [%] | cell survival ratio, amount of ATP (HepG2 cells [4]) [%] | survival ratio of cattle fertilized eggs ([5]; 5 mg/ml in PBS, 72 hours) [%] | survival ratio of cattle fertilized eggs ([5]; 5 mg/ml in PBS, 96 hours) [%] | survival ratio of cattle fertilized eggs ([5]; 10 mg/ml in PBS, 96 hours) [%] |
| --- | --- | --- | --- | --- | --- | --- | --- | --- | --- |
| Nfe6: recombinant Nfe peptide from Zoarces elongatus Kner, SEQ ID NO: 2, no thermal hysteresis activity [reference compound] | about 40% | ~56 | – | – | – | – | – | – | – |
| Nfe11: recombinant 66-residue peptide from Zoarces elongatus Kner, amino acid sequence SEQ ID NO: 6, no thermal hysteresis activity | about 75% | ~34 | ~48 | sufficient cell protection effects | ~62 | 60 | 67 | 50 | 50 |

From patent publication US20100267002A1, “PEPTIDE HAVING LIFE-LENGTHENING EFFECT ON CELLS” (National Institute of Advanced Industrial Science and …, priority 2009, published 2010)
